Experimental data: US9260417B2, “Therapeutic methods and compositions involving allosteric kinase inhibition” (AMITECH THERAPEUTIC SOLUTIONS, INC., priority 2010, dated 2016)
pEC50: −log10 of the molar value.

What was measured:
AKT1 = AKT1 (Homo sapiens (Human), UniProt P31749); assay: In vitro kinase panel (SelectScreen); type: biochemical
Description: (§1) In vitro kinase screen and competitive binding assay. Sorafenib as well as test compounds were submitted to Invitrogen and screened using their SelectScreen™ Profiling Service.

CK2 alpha 1 = CK2 alpha 1 (Homo sapiens (Human), UniProt P68400); assay: In vitro kinase panel (SelectScreen); type: biochemical
Description: as §1

CRAF Y340D Y341D = CRAF Y340D Y341D (Homo sapiens (Human), UniProt P04049, Y340D/Y341D); assay: In vitro kinase panel (SelectScreen); type: biochemical
Description: as §1

ERK1 = ERK1 (Homo sapiens (Human), UniProt P27361); assay: In vitro kinase panel (SelectScreen); type: biochemical
Description: as §1

ERK2 = ERK2 (Homo sapiens (Human), UniProt P28482); assay: In vitro kinase panel (SelectScreen); type: biochemical
Description: as §1

FAK2 = FAK2 (Homo sapiens (Human), UniProt Q14289); assay: In vitro kinase panel (SelectScreen); type: biochemical
Description: as §1

FGFR1 = FGFR1 (Homo sapiens (Human), UniProt P11362); assay: In vitro kinase panel (SelectScreen); type: biochemical
Description: as §1

FGFR2 = FGFR2 (Homo sapiens (Human), UniProt P21802); assay: In vitro kinase panel (SelectScreen); type: biochemical
FGFR2, sequence (P21802 22-821): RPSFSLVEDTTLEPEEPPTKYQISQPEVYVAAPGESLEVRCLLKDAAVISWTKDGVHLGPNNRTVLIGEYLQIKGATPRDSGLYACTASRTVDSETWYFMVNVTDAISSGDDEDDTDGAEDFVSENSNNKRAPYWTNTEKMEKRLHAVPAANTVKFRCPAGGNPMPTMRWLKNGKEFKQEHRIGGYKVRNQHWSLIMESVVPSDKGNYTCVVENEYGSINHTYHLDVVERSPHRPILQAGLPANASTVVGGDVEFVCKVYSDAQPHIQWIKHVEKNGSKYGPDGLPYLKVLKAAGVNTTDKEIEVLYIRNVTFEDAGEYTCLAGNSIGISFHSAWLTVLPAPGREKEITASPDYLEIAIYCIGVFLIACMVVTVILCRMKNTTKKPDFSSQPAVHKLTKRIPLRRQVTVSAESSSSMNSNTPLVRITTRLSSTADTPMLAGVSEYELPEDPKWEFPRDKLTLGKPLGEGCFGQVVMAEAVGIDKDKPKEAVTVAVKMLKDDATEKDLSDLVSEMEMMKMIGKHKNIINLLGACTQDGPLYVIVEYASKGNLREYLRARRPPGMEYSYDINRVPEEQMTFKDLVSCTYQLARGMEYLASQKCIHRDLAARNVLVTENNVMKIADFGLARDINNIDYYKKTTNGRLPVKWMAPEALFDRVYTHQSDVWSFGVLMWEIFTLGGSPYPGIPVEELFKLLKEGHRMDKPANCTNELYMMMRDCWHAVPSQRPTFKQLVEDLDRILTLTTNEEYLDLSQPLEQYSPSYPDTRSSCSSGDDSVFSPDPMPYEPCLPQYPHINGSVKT
Description: as §1

FGFR3 = FGFR3 (Homo sapiens (Human), UniProt P22607); assay: In vitro kinase panel (SelectScreen); type: biochemical
Description: as §1

FGFR3 K650E = FGFR3 K650E (Homo sapiens (Human), UniProt P22607, K650E); assay: In vitro kinase panel (SelectScreen); type: biochemical
Description: as §1

IGF1R = IGF1R (Homo sapiens (Human), UniProt P08069); assay: In vitro kinase panel (SelectScreen); type: biochemical
IGF1R, sequence (P08069 31-1367): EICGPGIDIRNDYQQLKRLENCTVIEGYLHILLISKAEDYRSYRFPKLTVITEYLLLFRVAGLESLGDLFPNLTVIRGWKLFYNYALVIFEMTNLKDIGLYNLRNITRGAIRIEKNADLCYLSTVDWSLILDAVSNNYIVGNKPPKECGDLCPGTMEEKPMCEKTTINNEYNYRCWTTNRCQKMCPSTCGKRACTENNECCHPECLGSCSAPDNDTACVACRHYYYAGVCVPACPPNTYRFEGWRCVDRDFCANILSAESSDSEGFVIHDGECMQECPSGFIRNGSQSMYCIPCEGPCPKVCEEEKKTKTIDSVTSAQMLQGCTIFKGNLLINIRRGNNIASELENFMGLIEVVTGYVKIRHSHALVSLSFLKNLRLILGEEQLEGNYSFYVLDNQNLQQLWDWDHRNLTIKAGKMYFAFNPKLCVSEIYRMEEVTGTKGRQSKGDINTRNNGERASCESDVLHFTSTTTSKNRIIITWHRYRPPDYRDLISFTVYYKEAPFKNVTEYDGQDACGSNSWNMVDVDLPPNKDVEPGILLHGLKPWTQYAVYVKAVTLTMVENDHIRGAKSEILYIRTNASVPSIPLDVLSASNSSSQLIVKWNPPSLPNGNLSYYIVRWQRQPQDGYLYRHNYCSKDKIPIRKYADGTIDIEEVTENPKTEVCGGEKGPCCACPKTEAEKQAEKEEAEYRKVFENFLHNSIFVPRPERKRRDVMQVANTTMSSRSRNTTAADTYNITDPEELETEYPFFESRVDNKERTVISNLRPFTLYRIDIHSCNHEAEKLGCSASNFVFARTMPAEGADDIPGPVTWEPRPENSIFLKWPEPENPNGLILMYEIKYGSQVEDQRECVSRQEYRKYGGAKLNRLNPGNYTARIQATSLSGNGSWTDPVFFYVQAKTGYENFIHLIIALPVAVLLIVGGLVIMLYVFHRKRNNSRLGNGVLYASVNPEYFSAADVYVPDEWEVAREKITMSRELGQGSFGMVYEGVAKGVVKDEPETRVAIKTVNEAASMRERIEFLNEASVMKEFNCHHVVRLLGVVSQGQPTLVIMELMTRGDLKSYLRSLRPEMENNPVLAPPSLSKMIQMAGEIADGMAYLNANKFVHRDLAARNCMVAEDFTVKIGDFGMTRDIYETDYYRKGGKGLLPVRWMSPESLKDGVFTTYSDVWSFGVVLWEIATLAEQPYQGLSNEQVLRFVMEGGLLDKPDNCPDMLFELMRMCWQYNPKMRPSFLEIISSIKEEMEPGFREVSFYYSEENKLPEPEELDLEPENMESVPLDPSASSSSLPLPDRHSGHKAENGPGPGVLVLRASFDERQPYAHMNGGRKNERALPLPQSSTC
Description: as §1

JNK2 = JNK2 (Homo sapiens (Human), UniProt P45984); assay: In vitro kinase panel (SelectScreen); type: biochemical
JNK2, sequence (P45984 whole entry): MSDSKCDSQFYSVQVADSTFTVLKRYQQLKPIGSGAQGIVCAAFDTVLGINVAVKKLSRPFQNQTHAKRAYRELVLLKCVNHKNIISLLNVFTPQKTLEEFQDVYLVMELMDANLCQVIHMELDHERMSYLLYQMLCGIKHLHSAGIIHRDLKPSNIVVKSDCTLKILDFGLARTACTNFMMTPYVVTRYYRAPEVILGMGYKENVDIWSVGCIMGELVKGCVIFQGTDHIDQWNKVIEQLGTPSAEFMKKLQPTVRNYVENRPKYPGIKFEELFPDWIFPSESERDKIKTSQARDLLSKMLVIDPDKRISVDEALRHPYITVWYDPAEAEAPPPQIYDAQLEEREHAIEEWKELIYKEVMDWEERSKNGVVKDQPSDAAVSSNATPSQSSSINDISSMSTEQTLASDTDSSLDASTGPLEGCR
Description: as §1

JNK3 = JNK3 (Homo sapiens (Human), UniProt P53779); assay: In vitro kinase panel (SelectScreen); type: biochemical
Description: as §1

KIT = KIT (Homo sapiens (Human), UniProt P10721); assay: In vitro kinase panel (SelectScreen); type: biochemical
Description: as §1

MAPKAPK2 = MAPKAPK2 (Homo sapiens (Human), UniProt P49137); assay: In vitro kinase panel (SelectScreen); type: biochemical; settings: 10 μM; MAPKAPK2
MAPKAPK2, sequence (P49137 whole entry): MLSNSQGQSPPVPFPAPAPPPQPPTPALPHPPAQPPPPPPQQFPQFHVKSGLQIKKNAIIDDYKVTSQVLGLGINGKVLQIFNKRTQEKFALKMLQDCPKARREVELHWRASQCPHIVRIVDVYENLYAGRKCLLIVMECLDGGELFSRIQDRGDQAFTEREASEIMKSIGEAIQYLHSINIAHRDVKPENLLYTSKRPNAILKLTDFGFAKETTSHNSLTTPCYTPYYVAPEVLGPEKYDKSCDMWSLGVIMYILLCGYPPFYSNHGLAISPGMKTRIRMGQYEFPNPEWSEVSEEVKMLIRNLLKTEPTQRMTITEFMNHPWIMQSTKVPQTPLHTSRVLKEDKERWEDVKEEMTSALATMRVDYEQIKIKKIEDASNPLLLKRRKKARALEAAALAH
Description: as §1

MEK1 = MEK1 (Homo sapiens (Human), UniProt Q02750); assay: In vitro kinase panel (SelectScreen); type: biochemical
Description: as §1

MEK2 = MEK2 (Homo sapiens (Human), UniProt P36507); assay: In vitro kinase panel (SelectScreen); type: biochemical
Description: as §1

MET (cMet) = MET (cMet) (Homo sapiens (Human), UniProt P08581); assay: In vitro kinase panel (SelectScreen); type: biochemical
Description: as §1

MET M1250T = MET M1250T (Homo sapiens (Human), UniProt P08581, M1250T); assay: In vitro kinase panel (SelectScreen); type: biochemical
Description: as §1

PAK2 = PAK2 (Homo sapiens (Human), UniProt Q13177); assay: In vitro kinase panel (SelectScreen); type: biochemical
Description: as §1

PKC alpha = PKC alpha (Homo sapiens (Human), UniProt P17252); assay: In vitro kinase panel (SelectScreen); type: biochemical
Description: as §1

PKC beta I = PKC beta I (Homo sapiens (Human), UniProt P05771); assay: In vitro kinase panel (SelectScreen); type: biochemical
PKC beta I, sequence (P05771 whole entry): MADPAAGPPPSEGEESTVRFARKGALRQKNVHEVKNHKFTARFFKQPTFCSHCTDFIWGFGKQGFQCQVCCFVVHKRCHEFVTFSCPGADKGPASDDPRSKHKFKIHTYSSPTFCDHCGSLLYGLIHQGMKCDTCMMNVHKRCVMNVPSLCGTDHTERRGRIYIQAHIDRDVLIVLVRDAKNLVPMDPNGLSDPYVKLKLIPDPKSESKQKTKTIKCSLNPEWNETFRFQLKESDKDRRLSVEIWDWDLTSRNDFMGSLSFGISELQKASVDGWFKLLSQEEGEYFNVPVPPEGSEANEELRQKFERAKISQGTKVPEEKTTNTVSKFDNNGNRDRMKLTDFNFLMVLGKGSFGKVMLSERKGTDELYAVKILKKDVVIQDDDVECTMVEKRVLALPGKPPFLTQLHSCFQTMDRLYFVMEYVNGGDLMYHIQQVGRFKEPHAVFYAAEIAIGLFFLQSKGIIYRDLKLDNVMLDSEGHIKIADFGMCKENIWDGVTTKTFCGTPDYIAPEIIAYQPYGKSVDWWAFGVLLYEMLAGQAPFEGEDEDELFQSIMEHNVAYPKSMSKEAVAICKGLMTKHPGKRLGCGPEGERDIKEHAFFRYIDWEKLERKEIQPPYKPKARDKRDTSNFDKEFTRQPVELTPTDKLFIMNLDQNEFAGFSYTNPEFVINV
Description: as §1

PKC beta II = PKC beta II (Homo sapiens (Human), UniProt P05771); assay: In vitro kinase panel (SelectScreen); type: biochemical
Description: as §1

PKC delta = PKC delta (Homo sapiens (Human), UniProt Q05655); assay: In vitro kinase panel (SelectScreen); type: biochemical
PKC delta, sequence (Q05655 whole entry): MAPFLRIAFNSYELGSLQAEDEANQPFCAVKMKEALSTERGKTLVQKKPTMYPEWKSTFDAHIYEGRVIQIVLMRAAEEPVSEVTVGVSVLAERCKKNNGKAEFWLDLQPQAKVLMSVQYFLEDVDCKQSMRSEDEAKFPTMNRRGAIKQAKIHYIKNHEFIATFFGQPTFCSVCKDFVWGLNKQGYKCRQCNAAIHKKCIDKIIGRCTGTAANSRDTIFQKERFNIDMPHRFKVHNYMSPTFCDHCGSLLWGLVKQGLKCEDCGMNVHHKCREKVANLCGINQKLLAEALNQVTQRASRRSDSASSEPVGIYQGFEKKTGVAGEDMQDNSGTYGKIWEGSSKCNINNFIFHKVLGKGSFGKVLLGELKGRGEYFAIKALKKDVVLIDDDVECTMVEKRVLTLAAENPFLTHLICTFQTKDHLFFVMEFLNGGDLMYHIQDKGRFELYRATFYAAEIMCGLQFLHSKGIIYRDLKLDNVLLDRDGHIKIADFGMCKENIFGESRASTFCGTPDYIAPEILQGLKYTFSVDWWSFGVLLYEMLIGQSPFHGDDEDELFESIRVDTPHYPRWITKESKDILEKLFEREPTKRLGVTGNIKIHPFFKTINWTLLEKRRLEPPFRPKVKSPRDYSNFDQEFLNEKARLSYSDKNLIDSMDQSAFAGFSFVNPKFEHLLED
Description: as §1

PKC epsilon = PKC epsilon (Homo sapiens (Human), UniProt Q02156); assay: In vitro kinase panel (SelectScreen); type: biochemical
Description: as §1

PKC eta = PKC eta (Homo sapiens (Human), UniProt P24723); assay: In vitro kinase panel (SelectScreen); type: biochemical
Description: as §1

PKC gamma = PKC gamma (Homo sapiens (Human), UniProt P05129); assay: In vitro kinase panel (SelectScreen); type: biochemical
Description: as §1

HUVECs = assay: XTT viability assay in HUVECs; type: cell-based, human; settings: HUVECs, 72 h, full growth medium containing 10% FBS; read-out: EC50, endothelial cell viability
Procedure: FIG. 1A-1F illustrate molecular modeling and assay screening to compounds for dual targeting of PDGFRβ and RAF. (FIG. 1A) Molecular modeling of the amino-triazole based small molecules in PDGFRβ and RAF, respectively. […] A homology model of PDGFRβ was created with a structurally-related family member (VEGFR2, PDB 1y6b). […] To autophosphorylation, immunoblots were carried out with a phospho-tyrosine antibody. Membranes were stripped and reprobed for total PDGFRβ levels. […] (FIG. 1D) Structure activity relationships of the amino-triazole based small molecules comparing both PDGFRβ and B-RAF. […] Curves represent the average of 3 separate experiments, error bars represent ±SEM.
For XTT assays, cells were grown in 96-well plates overnight and all assays were conducted in growth medium will full serum and additives. […] Dose-response curves were plotted using GraphPad Prism software and EC50s were calculated using this program.

XPA-1 cells = assay: Cell cycle analysis of XPA-1 cells (flow cytometry); type: cell-based; settings: 5 μM, 20 h
Procedure: For cell cycle analysis, cells were grown in complete DMEM+10% FBS in the presence of each inhibitor and harvested after 20 h of inhibitor treatment. Cell cycle analysis was performed by flow cytometry following propidium iodide staining. The cells were harvested, fixed with ice cold methanol, treated for 45 min with 10 μg/ml of RNAse and resuspended in PBS containing 10 μg/ml of PI, and analysed by flow cytometry. […] For corresponding confocal microscopy images, cells attached to coverslips were fixed with cold methanol and permeabilized in PBS containing 0.1% triton X-100 for two minutes and blocked for 60 minutes, at room temperature with 2% BSA in PBS. Cells were stained with the DNA binding dye TOPRO-3 (Invitrogen) to label the DNA and laminB (Santa Cruz) to label the nuclear envelope. The anti-Lamin B antibody was used at a 1:100 dilution for two hours at room temperature. After washing several times with PBS, cells were stained for two hours at room temperature, with secondary antibody diluted 1:300 and co-incubated with TOPRO-3 (1:500) (Invitrogen). Samples were mounted in Vectashield hard-set mounting media (Vector Laboratories) and imaged on a Nikon Eclipse Cl confocal microscope with a 1.4 NA 60× oil-immersion lens, using minimum pinhole (30 μm). Images were captured and processed using EZ-C1 3.50 imaging software (Nikon, Inc). Scale bars, 10 μm.

Nc1cc(Oc2ccc(-c3nnc(Nc4cccc(C(F)(F)F)c4)[nH]3)cc2)ncn1 [Compound 3]
% Inhibition at 10 μM (AKT1): 1% | % Inhibition at 10 μM (CK2 alpha 1): −3% | % Inhibition at 10 μM (CRAF Y340D Y341D): 38% | % Inhibition at 10 μM (ERK1): 1% | % Inhibition at 10 μM (ERK2): −4% | % Inhibition at 10 μM (FAK2): −4% | % Inhibition at 10 μM (FGFR1): 9% | % Inhibition at 10 μM (FGFR2): −1% | % Inhibition at 10 μM (FGFR3): −12% | % Inhibition at 10 μM (FGFR3 K650E): 4% | % Inhibition at 10 μM (IGF1R): −4% | % Inhibition at 10 μM (JNK2): −7% | % Inhibition at 10 μM (JNK3): −8% | % Inhibition at 10 μM (KIT): 74% | % Inhibition at 10 μM (MAPKAPK2): 1% | % Inhibition at 10 μM (MEK1): −5% | % Inhibition at 10 μM (MEK2): −8% | % Inhibition at 10 μM (MET (cMet)): 7% | % Inhibition at 10 μM (MET M1250T): 4% | % Inhibition at 10 μM (PAK2): 2% | % Inhibition at 10 μM (PKC alpha): −5% | % Inhibition at 10 μM (PKC beta I): −3% | % Inhibition at 10 μM (PKC beta II): −3% | % Inhibition at 10 μM (PKC delta): −1% | % Inhibition at 10 μM (PKC epsilon): −3% | % Inhibition at 10 μM (PKC eta): 1% | % Inhibition at 10 μM (PKC gamma): 6% | pEC50 (HUVECs): 4.74 | cell cycle / mitotic progression (XPA-1 cells): showed no effect
